According to US7098333B2, “Pyrrolo[2,3-d]pyrimidine and their use as purinergic receptor antagonists” (Vernalis Research Limited, priority 2001, dated 2006):
Values belong to the compound of their own block, whether it stands above or below them.

How the values were obtained:
[1] = target: human adenosine A2A receptors (Homo sapiens, UniProt P29274); test: Binding affinities at hA2A receptors, displacement of [3H]-CGS 21680; details: displacement of radioligand [3H]-CGS 21680, in vitro
adenosine A2A receptor = details: cited from earlier work
[2] = cited from earlier work

human adenosine A2A receptors, sequence (P29274 whole entry): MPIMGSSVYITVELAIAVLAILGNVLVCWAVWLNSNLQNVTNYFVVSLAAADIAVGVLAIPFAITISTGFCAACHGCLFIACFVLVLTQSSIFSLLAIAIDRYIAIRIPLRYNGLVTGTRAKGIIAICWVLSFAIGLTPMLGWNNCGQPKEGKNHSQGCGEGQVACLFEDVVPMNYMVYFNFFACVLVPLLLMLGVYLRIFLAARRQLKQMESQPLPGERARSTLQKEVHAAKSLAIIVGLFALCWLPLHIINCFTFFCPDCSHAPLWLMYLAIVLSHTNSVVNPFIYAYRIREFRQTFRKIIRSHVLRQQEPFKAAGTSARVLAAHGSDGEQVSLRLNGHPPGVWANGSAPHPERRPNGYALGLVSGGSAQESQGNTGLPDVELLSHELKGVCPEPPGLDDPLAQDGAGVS

melting point: 174.8 to 175.6 °C
SMILES: OC[C@H]1CCCN1c1nc(-c2ccco2)c2cc[nH]c2n1 [Example 6, (2R)-2-(2-hydroxymethylpyrrolidin-1-yl)-4-(2-furyl)-1H-pyrrolo[2,3-d]pyrimidine]

melting point: 154.8 to 154.9 °C
SMILES: COc1ccc(CNc2nc(-c3ccco3)c3cc[nH]c3n2)cc1OC [Example 7, N-(3,4-dimethoxybenzyl)-4-(2-furyl)-1H-pyrrolo[2,3-d]pyrimidine-2-amine]

Ki [1]: 272 nM
SMILES: Nc1nc(-c2ccco2)c2cc[nH]c2n1 [Example 8, 4-(2-furyl)-1H-pyrrolo[2,3-d]pyrimidine-2-amine]

melting point: 115.1 to 115.2 °C
SMILES: CN(C)c1nc(-c2ccco2)c2ccn(Cc3ccccc3F)c2n1 [Example 11, N,N-dimethyl-7-(2-fluorobenzyl)-4-(2-furyl)-7H-pyrrolo[2,3-d]pyrimidine-2-amine]

Ki [1]: 16 nM
SMILES: Nc1nc(-c2ccco2)c2ccn(Cc3ccccc3F)c2n1 [Example 13, 7-(2-fluorobenzyl)-4-(2-furyl)-7H-pyrrolo[2,3-d]pyrimidine-2-amine]

More lines, now with the values behind:

SMILES: CN(C)c1nc(-c2ccco2)c2cc[nH]c2n1 [Example 1, N,N-dimethyl-4-(2-furyl)-1H-pyrrolo[2,3-d]pyrimidine-2-amine]
melting point: 196.9 to 197.1 °C
Ki [1]: 60 nM

SMILES: Clc1nc(-c2ccco2)c2cc[nH]c2n1 [Example 2, 2-chloro-4-(2-furyl)-1H-pyrrolo[2,3-d]pyrimidine]
melting point: 265.8 to 266.3 °C

SMILES: CN(C)c1nc(-c2ccco2)c2ccn(Cc3ccccc3)c2n1 [Example 3, 7-benzyl-N,N-dimethyl-4-(2-furyl)-7H-pyrrolo[2,3-d]pyrimidine-2-amine]
melting point: 91.7 to 92.3 °C

SMILES: CN(C)c1nc(-c2ccco2)c2ccn(C(=O)c3ccccc3)c2n1 [Example 5, 7-benzoyl-N,N-dimethyl-4-(2-furyl)-7H-pyrrolo[2,3-d]pyrimidine-2-amine]
melting point: 108.3 to 109.1 °C

SMILES: CCCn1c(=O)c2c(nc(/C=C/c3ccc(OC)c(OC)c3)n2C)n(CCC)c1=O [KF 17837, (E)-8-(3,4-dimethoxystyryl)-1,3-dipropyl-7-methylxanthine]
anticataleptic effects of a subthreshold dose of L-DOPA plus benserazide (adenosine A2A receptor; combination with L-DOPA plus benserazide): potentiated
catalepsy induced by haloperidol and reserpine (adenosine A2A receptor; in vivo): reduced
cataleptic responses induced by intracerebroventricular CGS 21680 (adenosine A2A receptor; oral administration): significantly ameliorated

SMILES: Cn1c(=O)c2[nH]cnc2n(C)c1=O [Theophylline, 1,3-dimethylxanthine]
mean objective disability scores ([2]; 150 mg/day oral, up to 12 weeks, 15 Parkinsonian patients): significant improvements
patients reporting moderate or marked subjective improvement ([2]; of 15 Parkinsonian patients, 150 mg/day oral, up to 12 weeks): 11
serum theophylline levels ([2]; slow release oral preparation 150 mg/day, after one week, 15 Parkinsonian patients): 4.44 mg/L
